Patent US4146631A, “Benzamide derivatives” (May & Baker Limited, priority 1976, dated 1979)

Key:
[1] = system: passive cutaneous anaphylactic (PCA) reaction; assay: Passive cutaneous anaphylactic (PCA) reaction, reagin-allergen combination, in rats; assay type: in vivo; conditions: Rattus norvegicus; for ED100: intravenous, just before injection of allergen, read-out: ED100 (intravenous dose which produces 100% inhibition of the PCA reaction); for inhibition in vivo at 100 mg/kg: oral dose of 100 mg/kg; for inhibition in vivo at 100 mg/kg / ED50: thirty minutes before intravenous allergen; for ED50: oral, read-out: ED50 (oral dose which produces 50% inhibition of the PCA reaction)
Excerpt: In pharmacological tests the benzamide derivatives of general formula I suppress the passive cutaneous anaphylactic (PCA) reaction resulting from combination of tissue-fixed reaginic antibodies with the appropriate antigenic material (termed reagin-allergen combination) and carried out in an essentially similar manner to that described by Ogilvie [Nature (Lond.), (1964), 204, 91-92; Immunology, (1967), 12, 112-131]. In the method used to test these compounds sera were obtained from rats which had been infected with larvae of the nematode parasite Nippostrongylus brasiliensis; as a result of the parasitic infestation reaginic antibodies are elaborated in the host mammal and are found in sera removed from such animals. Other, non-infected, rats received intradermal injections of appropriate dilutions of such sera and were then given the allergenic material along with Evans' blue dye intravenously forty-eight hours later.
The allergenic material consisted of supernatant fluid after centrifugation of homogenates of adult Nippostrongylus brasiliensis worms which had been macerated in Tyrode's solution. The sites of PCA reactions were visualised by the effusion of Evan's blue dye from the circulation into those areas as a result of increased capillary permeability caused by the release of biologically-active substances from cells where reagin-allergen combination had occurred. The new compounds when given intravenously to the rats just before injection of allergen, or administered orally thirty minutes before intravenous injection of allergen, were able to prevent the development of the PCA reaction, as shown below in Table I, Table II and Table III.

[2] = Acute oral toxicity in mice; conditions: mouse, in vivo, highest dose used 1000 mg/kg, read-out: LD50 (doses lethal to 50% of mice tested)
Excerpt: Mice were each treated orally with one of the compounds of formula I, and they were observed daily until there had been at least 3 consecutive days without any deaths. The LD50 figures obtained (doses lethal to 50% of mice tested) are shown below in Table IV, expressed in mg/kg animal body weight.
The symbol ">" means "greater than" in this specification. Where the LD50 is said to be ">1000," a more precise estimation of the LD50 was not possible because the numbers of deaths was too small, even at the highest dose used, 1000 mg/kg.

[3] = Acute intravenous toxicity in mice; conditions: mouse, in vivo
Excerpt: Mice were each treated intravenously with an aqueous solution of the triethanolamine salt or sodium salt of one of the compounds of formula I, and they were observed until there had been at least 3 consecutive days without any deaths. The LD50 figures obtained (doses lethal to 50% of mice tested) are shown below in Table V, expressed in mg/kg animal body weight. In Table V, "Na" means that the sodium salt was used and "T" means that the triethanolamine salt was used.
The aqueous solutions were prepared as follows:
A mixture of the test compound and water was treated gradually with triethanolamine until complete solution occurred. The solution was then diluted with water to a concentration of test compound of either 1% w/v or 2% w/v.
The test compound was dissolved in aqueous sodium hydroxide (1N) and the solution was brought to pH 8 by treatment with hydrochloric acid. The solution was then diluted with water to a concentration of test compound of 2% w/v.
Various volumes of these solutions were then administered to the mice.

[4] = triethanolamine salt (T), 2% w/v test solution
[5] = sodium salt (Na), 2% w/v test solution

Row | Compound | ED100 [1] [mg/kg] | inhibition in vivo at 100 mg/kg [1] [%] | ED50 [1] [mg/kg] | LD50 [2] [mg/kg] | LD50 [3, 4] [mg/kg] | LD50 [3, 5] [mg/kg] | LD50 ([3]; triethanolamine salt (T), 1% w/v test solution) [mg/kg] | LD50 ([3]; triethanolamine salt (T), 1% w/v solution for lower doses, 2% w/v for higher doses) [mg/kg]
1 | CC(=O)c1cc(C(C)(C)C)cc(C(=O)Nc2nnn[nH]2)c1O [Compound BZ, 3-acetyl-5-tert-butyl-2-hydroxy-N-(tetrazol-5-yl)benzamide] | 0.5 | 59 | 2.6 | > 1000 | 240 |  |  | 
2 | Cc1ccc(O)c(C(=O)Nc2nnn[nH]2)c1 [AG, 2-hydroxy-5-methyl-N-(tetrazol-5-yl)benzamide] | 1 |  |  | > 1000 |  | 670 |  | 
3 | O=C(Nc1nnn[nH]1)c1cc(-c2ccccc2)ccc1O [BG, 2-hydroxy-5-phenyl-N-(tetrazol-5-yl)benzamide] | 10 |  |  | > 1000 |  |  | 200 | 
4 | O=C(Nc1nnn[nH]1)c1cc(F)ccc1O [Compound BH, 5-fluoro-2-hydroxy-N-(tetrazol-5-yl)benzamide] | 1 | 94 | 16 | > 1000 |  |  |  | 500
5 | O=C(Nc1nnn[nH]1)c1cc(Cl)ccc1O [Compound AD, 5-chloro-2-hydroxy-N-(tetrazol-5-yl)benzamide] | 1 | 94 | 13 | > 1000 |  | 480 |  | 
6 | O=C(Nc1nnn[nH]1)c1cccc(Br)c1O [Compound AL, 3-bromo-2-hydroxy-N-(tetrazol-5-yl)benzamide] | 10 | 69 | 55 | 794 | 540 |  |  | 
